These results are taken from PMC11086599, “Cyanobacterial α-carboxysome carbonic anhydrase is allosterically regulated by the Rubisco substrate RuBP” (Science Advances, 2024).

Numbering of substitutions follows the chain as printed.

One data set concerns the target T1, HnCsoSCA (Halothiobacillus neapolitanus, UniProt O85042).
T1 construct: gene csoS3
To be noted: labelled compound; 2.7 mM NaH13C18O3, 50 mM EPPS-NaOH, 20 mM MgCl2, pH 7.8, DTNB; no RuBP needed.

Data set [1] concerns the target Cyanobium sp. PCC7001 CsoSCA (α-carboxysome carbonic anhydrase), truncated form lacking the 116-residue disordered N-terminal region (Cyanobium sp. PCC7001). The data set is described as follows: crystal structure; CyCsoSCA co-crystallised with RuBP (RuBP:CyCsoSCA 10:1), 7 mg/ml protein, 0.2 M ammonium sulfate, 0.1 M bis-tris pH 6.5, 21% PEG 3350, 15% ethylene glycol; one hexamer in the asymmetric unit, P212121.

The target is the same in data set [2]. The data set can be described thus: SEC; size exclusion chromatography of the purified protein in solution (fig. S13); conditions of this run not told in the main text.
In data set [3] the target is T2, CyCsoSCA (Cyanobium sp. PCC 7001, UniProt Z9Q2N2GQP4, K469D).
T2 construct: first 116 residues (disordered N-terminal tail) removed; pHue His-ubiquitin fusion, tag cleaved with USP2; expressed in E. coli; homohexamer (trimer of dimers)
T2 sequence (Z9Q2N2GQP4 117-583 K469D): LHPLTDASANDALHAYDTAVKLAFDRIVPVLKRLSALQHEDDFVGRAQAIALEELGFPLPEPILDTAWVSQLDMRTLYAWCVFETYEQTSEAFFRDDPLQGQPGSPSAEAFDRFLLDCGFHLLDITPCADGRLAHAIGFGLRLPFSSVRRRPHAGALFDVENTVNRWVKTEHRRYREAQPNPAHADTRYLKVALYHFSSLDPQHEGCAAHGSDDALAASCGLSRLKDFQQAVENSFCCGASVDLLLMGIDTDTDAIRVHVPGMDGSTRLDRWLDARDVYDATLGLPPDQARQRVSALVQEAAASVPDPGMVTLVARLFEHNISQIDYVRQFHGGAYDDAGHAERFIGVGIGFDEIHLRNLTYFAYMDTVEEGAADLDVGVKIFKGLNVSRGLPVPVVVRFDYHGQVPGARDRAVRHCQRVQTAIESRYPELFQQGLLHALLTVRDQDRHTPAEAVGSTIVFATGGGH
The data set is described as follows: membrane inlet mass spectrometry […]-exchange CA assay. The data set is classed as biochemical. To be noted: 100 μM RuBP; allosteric activator; same buffer.

Data set [4] has as its target T3, CyCsoSCA (Cyanobium sp. PCC 7001, UniProt Z9Q2N2GQP4, H472Q).
T3 construct: first 116 residues (disordered N-terminal tail) removed; pHue His-ubiquitin fusion, tag cleaved with USP2; expressed in E. coli; homohexamer (trimer of dimers)
T3 sequence (Z9Q2N2GQP4 117-583 H472Q): T2 sequence (Z9Q2N2GQP4 117-583 K469D) with D353K, H356Q
Described as above. The class given is biochemical. To be noted: 100 μM RuBP; allosteric activator; same buffer.

Data set [5] has as its target T4, CyCsoSCA (Cyanobium sp. PCC 7001, UniProt Z9Q2N2GQP4, T477A).
T4 construct: first 116 residues (disordered N-terminal tail) removed; pHue His-ubiquitin fusion, tag cleaved with USP2; expressed in E. coli; homohexamer (trimer of dimers)
T4 sequence (Z9Q2N2GQP4 117-583 T477A): T2 sequence (Z9Q2N2GQP4 117-583 K469D) with D353K, T361A
The data set is described as above. To be noted: 100 μM RuBP; allosteric activator; same buffer. The data set is classed as biochemical.

Data set [6] concerns the target T5, CyCsoSCA (Cyanobium sp. PCC 7001, UniProt Z9Q2N2GQP4).
T5 construct: first 116 residues (disordered N-terminal tail) removed; pHue His-ubiquitin fusion, tag cleaved with USP2; expressed in E. coli; homohexamer (trimer of dimers)
T5 sequence (Z9Q2N2GQP4 117-583): T2 sequence (Z9Q2N2GQP4 117-583 K469D) with D353K
The data set can be described thus: membrane inlet mass spectrometry […]-exchange CA assay; Hill fit. The data set is classed as biochemical. The settings on record: allosteric activator of bicarbonate dehydration/CO2 hydration; sigmoidal, Hill slope 2.214; 2.7 mM labelled bicarbonate, 50 mM EPPS-NaOH, 20 mM MgCl2, pH 7.8; site near dimer interface (R266, K469, R5).

Data set [7] deals with the molecule itself. The data set is described as follows: SEC; size exclusion chromatography of the purified protein in solution (fig. S13); conditions of this run not told in the main text. (Size exclusion chromatography separates by hydrodynamic size, large species first.)

Take `O=C(O)O` [HCO3^−]: on HnCsoSCA, the “membrane inlet mass spectrometry 18O-exchange CA assay” value is “HCO3^− dehydration activity was recorded using MIMS after the addition of CsoSCA variants”.
Broadly, the stoichiometry N is the number of molecules, sites or subunits per partner or assembly. For the molecule “Cyanobium sp. PCC7001 CsoSCA (α-carboxysome carbonic anhydrase), truncated form lacking the 116-residue disordered N-terminal region (enzyme)”, the stoichiometry N in data set [1] and in data set [2] was 6 in each case.
Broadly, the EC50 is the midpoint of the concentration-response curve. Low readings indicate an effect from little substance, high ones a need for much substance. As to `O=C(COP(=O)(O)O)[C@H](O)[C@H](O)COP(=O)(O)O` [RuBP], the “membrane inlet mass spectrometry 18O-exchange CA assay” value at CyCsoSCA [3] is “a minor increase in activity upon addition of the ligand”; on CyCsoSCA [4], “H472Q mutation (targeted approach) and T477A (random approach) also resulted in a biphasic activity profile”; on CyCsoSCA [5], “high levels of ligand-independent activity and a notable increase with RuBP”. At CyCsoSCA [6], this molecule yielded an EC50 of 18 ± 2 µM.

B1: Halothiobacillus neapolitanus CsoSCA (α-carboxysome carbonic anhydrase), truncated form lacking the first 49 residues (enzyme, UniProt O85042 50-514, looked up)
chain: RHPLTDLEANEQLGRCEDSVKNRFDRVIPFLQVVAGIPLGLDYVTRVQELAQSSLGHTLPEELLKDNWISGHNLKGIFGYATAKALTAATEQFSRKIMSEKDDSASAIGFFLDCGFHAVDISPCADGRLKGLLPYILRLPLTAFTYRKAYAGSMFDIEDDLAQWEKNELRRYREGVPNTADQPTRYLKIAVYHFSTSDPTHSGCAAHGSNDRAALEAALTQLMKFREAVENAHCCGASIDILLIGVDTDTDAIRVHIPDSKGFLNPYRYVDNTVTYAQTLHLAPDEARVIIHEAILNANRSDGWAKGNGVASEGMRRFIGQLLINNLSQIDYVVNRHGGRYPPNDIGHAERYISVGDGFDEVQIRNLAYYAHLDTVEENAIDVDVGIKIFTKLNLSRGLPIPIAIHYRYDPNVPGSRERTVVKARRIYNAIKERFSSLDEQNLLQFRLSVQAQDIGSPIEEVASA
notes: CsoSCA carbonic anhydrase of Halothiobacillus neapolitanus, O85042 with the first 49 residues (disordered N-terminal region) removed; codon-optimised for E. coli; also called HnCsoSCA; wild-type HnCsoSCA; source: E. coli NEB T7 Express pLysY, pHue plasmid, purified (HisTrap, USP2 cleavage, second HisTrap, SEC on Superdex 200)
Turning to B1, the “stoichiometry N” value in data set [7] is 6.
